A short description of data set [1]: in vivo. The following applies: Sprague-Dawley, rat, po, 50 mg/kg.
Data set [2] can be described thus: Half life in human plasma at 30 to 60 mg. The data set is classed as ADME, cell-free.
Data set [3] can be described thus: in vitro. The following applies: human, hepatocytes.
Data set [4] in a line: in vivo. The settings on record: Sprague-Dawley, rat, po, 50 mg/kg. This is another data set of the same source.
The nature of data set [5]: in vitro. The following applies: rat, liver microsomes. On the technique in general: Microsomes from liver hold many membrane-bound enzymes, among them those of drug oxidation.
Data set [6] can be described thus: in vivo. The following applies: Sprague-Dawley, rat, iv, 5 mg/kg.
A short description of data set [7]: in vivo. The following applies: beagle, dog, po, 50 mg/kg.
Data set [8] can be described thus: in vivo. The settings on record: Sprague-Dawley, rat, iv, 5 mg/kg. This is another data set of the same source.
Data set [9] can be described thus: in vitro. The following applies: human, liver microsomes.
Data set [10] can be described thus: in vivo. The following applies: cynomolgus monkey, po, 25 mg/kg.
Data set [11] is described as follows: in vivo. The settings on record: Sprague-Dawley, rat, po, 50 mg/kg. This is another data set of the same source.
Data set [12] is described as follows: Half life in Beagle dog at 50 mg/kg/day, po by LC/MS analysis. The data set is classed as ADME, organism-based, Canis lupus familiaris. The following applies: in vivo.
Data set [13] can be described thus: in vivo. The following applies: cynomolgus monkey, po, 25 mg/kg. This is another data set of the same source.
A short description of data set [14]: Half life in overnight fasted cynomolgus monkey at 25 mg/kg/day, po by LC/MS analysis. The following applies: in vivo. The data set is classed as ADME, organism-based, Macaca fascicularis.
A short description of data set [15]: in vivo. The settings on record: cynomolgus monkey, po, 25 mg/kg. The source holds these as a separate data set.
Data set [16] in a line: in vivo. The following applies: beagle, dog, iv, 5 mg/kg.
Data set [17] can be described thus: in vivo. The settings on record: Sprague-Dawley, rat, po, 50 mg/kg. The source holds these as a separate data set.
Data set [18] is described as follows: Half life in overnight fasted cynomolgus monkey at 5 mg/kg/day, iv by LC/MS analysis. The data set is classed as ADME, organism-based, Macaca fascicularis. The settings on record: in vivo.
Data set [19] in a line: in vivo. The following applies: Sprague-Dawley, rat, iv, 5 mg/kg. The source holds these as a separate data set.
Data set [20] in a line: in vivo. The settings on record: beagle, dog, iv, 5 mg/kg. This is another data set of the same source.
Data set [21] is described as follows: in vivo. The following applies: cynomolgus monkey, iv, 5 mg/kg.
Data set [22] is described as follows: in vivo. The settings on record: beagle, dog, iv, 5 mg/kg. The source holds these as a separate data set.
The nature of data set [23]: in vitro. The settings on record: rat, hepatocytes.
Data set [24] can be described thus: Terminal half life in patient plasma with advanced solid tumor administered at 75 mg. The settings on record: human, read-out: beta t1/2 (converted). It is filed as ADME.

Broadly, the Cmax is the highest concentration seen after dosing. In general, AUC refers to concentration integrated over time. The term Vd denotes the apparent volume that relates the amount in the body to the concentration in plasma or blood. Broadly, the bioavailability is dose-corrected exposure relative to a reference, in per cent. In general, clearance refers to the rate of elimination divided by the concentration.

In the case of `COc1cc2ncnc(Nc3ccc(F)c(Cl)c3)c2cc1NC(=O)/C=C/CN1CCCCC1` [DACOMITINIB ANHYDROUS], the results for the Cmax at 144 h in the data set “in vivo [1]” and in the data set “in vivo [13]” were 630 ng/mL and 220 ng/mL, respectively. Also, the half-life in data set [2] was 59 h; in “in vivo [6]”, 9.8 h; in [12], 20.9 h; in data set [14], 12.1 h; in “in vivo [17]”, 19.4 h; in data set [18] it was 5.7 h. The same compound had a half-life in “in vivo [20]” of 15.9 h. In addition, the half-life at 1 µM turned out to be 4.15 h in “in vitro [3]” and 2.38 h in “in vitro [23]”. Also, the AUC at 144 h in “in vivo [4]” was determined as 20500 ng·h/mL; in “in vivo [7]”, 25200 ng·h/mL; in “in vivo [15]”, 5400 ng·h/mL; in “in vivo [19]”, 2100 ng·h/mL. Moreover, the half-life at 5 µM in “in vitro [5]” and in the data set “in vitro [9]” was over 0.667 h in each case. Besides, the Vd at 144 h in the data set “in vivo [8]” was determined as 34.2 L/kg; in “in vivo [16]” it was 28 L/kg. In addition, the bioavailability at 144 h in the data set “in vivo [10]” is 56%; in “in vivo [11]”, 80%. Moreover, the clearance at 144 h in “in vivo [21]” is 44.1 mL/min/kg; in the data set “in vivo [22]” it was 24.4 mL/min/kg.
Take `COc1cc2ncnc(Nc3ccc(F)c(Cl)c3)c2cc1OCCCN1CCOCC1` [GEFITINIB]: the values for the half-life at 1 µM in the data set “in vitro [3]” and in “in vitro [23]” were 3.75 h and 1.68 h, respectively. Further, the half-life at 5 µM in “in vitro [5]” and in the data set “in vitro [9]” was over 0.667 h throughout.
Turning to `CCOc1cc2ncc(C#N)c(Nc3ccc(F)c(Cl)c3)c2cc1NC(=O)/C=C/CN(C)C` [PELITINIB], the half-life in [24] is 21.7 h.

The values are drawn from ChEMBL document CHEMBL3853319, “Tyrosine Kinase Inhibitors. 20. Optimization of Substituted Quinazoline and Pyrido[3,4-d]pyrimidine Derivatives as Orally Active, Irreversible Inhibitors of the Epidermal Growth Factor Receptor Family” (J Med Chem, 2016).
